{"source": "PubChem BioAssay AID1996"}
{"settings": "buffer; pH 7.4; 200.0 µM", "units": {"solubility kinetic": "µg/mL"}}
{"smiles": "CC(=O)c1ccc(N2CCN(C(=O)c3cccs3)C(C)C2)c(F)c1", "note": "(stereo not given)", "solubility kinetic": "> 52"}
{"smiles": "CC(NC1CCN(Cc2ccccc2)CC1)c1ccc(F)cc1", "note": "(stereo not given)", "solubility kinetic": 42.3}
{"smiles": "CC1CCCCC1NC(=O)COc1ccc(C#N)cc1", "note": "(stereo not given)", "solubility kinetic": "> 40.9"}
{"smiles": "O=[N+]([O-])c1ccc(OCc2n[nH]c(=S)n2-c2ccccc2)cc1", "solubility kinetic": "> 49.3"}
{"smiles": "Cc1ccc(S(=O)(=O)N2CCCN(C(=O)OC(C)(C)C)CC2)cc1", "solubility kinetic": "> 53.2"}
{"smiles": "COc1ccc(NC(=O)C2=Cc3cccc(OC)c3OC2)cc1", "solubility kinetic": 17.7}
{"smiles": "Cc1onc(-c2c(F)cccc2Cl)c1C(=O)c1ccc(F)cc1", "solubility kinetic": 9.1}
{"smiles": "CCOCCOc1cccc(C(=O)NC(c2ccccc2)C(C)C)c1", "note": "(stereo not given)", "solubility kinetic": 6.2}
{"smiles": "O=C(COC(=O)c1cc[n+]([O-])cc1)NC(=O)c1ccc(OC(F)F)cc1", "solubility kinetic": "> 54.9"}
{"smiles": "CC(OC(=O)c1ccccc1CCc1ccccc1)C(N)=O", "note": "(stereo not given)", "solubility kinetic": "> 44.6"}
{"smiles": "Cc1cc(NC(=O)c2ccc(-c3ccccc3[N+](=O)[O-])o2)no1", "solubility kinetic": 6.7}
{"smiles": "Cc1cccc(NC(=O)C(=O)NCc2ccc3c(c2)OCO3)c1C", "solubility kinetic": 2}
{"smiles": "CCOC(=O)NC(C)N1C(=O)C2C3C=CC(C3)C2C1=O", "note": "(stereo not given)", "solubility kinetic": "> 41.7"}
{"smiles": "CC1CCCC(C)N1C(=O)COC(=O)Cc1ccc(Cl)cc1", "note": "(stereo not given)", "solubility kinetic": "> 48.6"}
{"smiles": "Nc1nc(Cl)nc2c1ncn2[C@@H]1O[C@H](CO)[C@@H](O)[C@H]1O", "solubility kinetic": "> 45.3"}
{"smiles": "COc1cccc(C(=O)OCCNC(=O)c2cccnc2)c1.Cl", "solubility kinetic": 43.3}
{"smiles": "NC(=O)c1ccc(OCC(F)(F)F)nc1", "solubility kinetic": 31.1}
{"smiles": "Cc1cc(/C(N)=N/OC(=O)Nc2ccccc2)no1", "solubility kinetic": 15.7}
{"smiles": "CC1CC1C(=O)OCC(=O)Nc1ccc(S(=O)(=O)N2CCOCC2)cc1", "note": "(stereo not given)", "solubility kinetic": "> 57.4"}
{"smiles": "C/C(=C\\c1cccs1)C(=O)c1c(C)cc(C)[nH]c1=O", "solubility kinetic": "> 41"}
{"smiles": "CC(=O)c1sc2nsc(SCCN3CCCCC3)c2c1N", "solubility kinetic": 47.5}
{"smiles": "Nc1c(C(=O)CSc2ccccn2)c(=O)[nH]c(=O)n1C1CC1", "solubility kinetic": 24.6}
{"smiles": "Cc1nnc(NC(=O)C2CCN(S(=O)(=O)c3ccc(F)c(F)c3)CC2)o1", "solubility kinetic": "> 58"}
{"smiles": "N#Cc1c(Cl)cccc1N1CCC(C(N)=O)CC1", "solubility kinetic": "> 39.6"}
{"smiles": "N=c1oc2ccccc2cc1C(=O)Nc1ccc(F)cc1", "solubility kinetic": 0.6}
{"smiles": "C/C(=C\\c1ccccc1)C(=O)N1CCN(Cc2ccc3c(c2)OCO3)CC1", "solubility kinetic": 51.8}
{"smiles": "CCCOc1cccc(C(=O)NCCNC(=O)c2cnccn2)c1", "solubility kinetic": 48}
{"smiles": "S=C(NCCCc1ccccc1)Nc1ccccc1", "solubility kinetic": 31.9}
{"smiles": "O=C(CSc1nnc(C2CC2)n1Cc1ccccc1)N1CCNC1=O", "solubility kinetic": "> 53.6"}
{"smiles": "O=C1CNC(=O)/C(=C\\c2ccc(F)cc2)N1", "solubility kinetic": 5}
{"smiles": "O=C(Oc1ccc(Cl)cc1)N1CCOCC1", "solubility kinetic": "> 36.3"}
{"smiles": "COc1ccccc1CCC(=O)NNC(=O)c1ccccc1", "solubility kinetic": "> 44.8"}
{"smiles": "Cc1ccccc1C(=O)Nc1ccc2c(c1)OCCO2", "solubility kinetic": "> 40.4"}
{"smiles": "S=c1[nH]nc(C2CCCCC2)o1", "solubility kinetic": "> 27.6"}
{"smiles": "CCn1cc(C(=O)NCCC(=O)NCCO)c(=O)c2cc3c(cc21)OCO3", "solubility kinetic": "> 56.3"}
{"smiles": "O=C(CNC(=O)C1CCCCC1)OCC(=O)c1ccc(F)cc1", "solubility kinetic": "> 48.2"}
{"smiles": "Brc1ccc(OCCCCN2CCCCC2)cc1", "solubility kinetic": 40.7}
{"smiles": "CC(C)=CC(=O)OCC(=O)Nc1ccc(SC(F)F)cc1", "solubility kinetic": 10.6}
{"smiles": "O=C(CCn1c(=S)[nH]c2ccccc2c1=O)N1CCCCC1", "solubility kinetic": 9.1}
{"smiles": "Cl.Oc1ccc(Nc2ncnc3c2oc2ccccc23)cc1", "solubility kinetic": 0.7}
{"smiles": "Cn1cccc1C(=O)OCC(=O)N1CC(=O)Nc2ccccc21", "solubility kinetic": 45.1}
{"smiles": "O=C(C1COc2ccccc2O1)N1CCN(c2ccc([N+](=O)[O-])cc2)CC1", "note": "(stereo not given)", "solubility kinetic": 7.7}
{"smiles": "CN(C)CCn1ccc(O)c(Cc2ccc(Cl)cc2)c1=O", "solubility kinetic": 44.8}
{"smiles": "O=C1NCCSC1c1ccccc1", "note": "(stereo not given)", "solubility kinetic": "> 29"}
{"smiles": "O=C(Nc1nccs1)c1ccc(COc2ccccc2Cl)o1", "solubility kinetic": 0.9}
{"smiles": "N#Cc1ccc(C(=O)NCC2CCCCC2)cc1", "solubility kinetic": 19.9}
{"smiles": "COc1cccc(CC(=O)NCC2(N3CCCCC3)CCCCC2)c1", "solubility kinetic": "> 51.7"}
{"smiles": "Cc1cc(C)n2c(=O)c3ccc(Cl)cc3nc2c1C#N", "solubility kinetic": 1.3}
{"smiles": "Cc1ccccc1C(=O)NCCCNC(=O)c1ccco1", "solubility kinetic": 42.9}
{"smiles": "COC(=O)c1cc(OC)nc2ccc(Br)cc12", "solubility kinetic": "< 0.6"}
{"smiles": "Clc1nnc(Cl)c2c1ncn2Cc1ccccc1", "solubility kinetic": "> 41.9"}
{"smiles": "Cc1nc(-c2ccccc2)nc2sc(C(=O)c3ccc(F)cc3)c(N)c12", "solubility kinetic": 1.5}
{"smiles": "Cc1ccc(NS(=O)(=O)c2ccc3c(c2)oc(=O)n3C)cc1C", "solubility kinetic": "< 0.4"}
{"smiles": "Cc1cc(N)ccc1NC(=O)CN1CCCC1", "solubility kinetic": 23.1}
{"smiles": "O=C(COC(=O)Cc1ccccc1)Nc1cccnc1Cl", "solubility kinetic": "> 45.7"}
{"smiles": "CCN(C(=O)C1CCCO1)c1ccccc1", "note": "(stereo not given)", "solubility kinetic": 25.2}
{"smiles": "O=C(/C=C/c1ccc([N+](=O)[O-])cc1)N1CCN(Cc2ccccc2)CC1", "solubility kinetic": 1.7}
{"smiles": "Cc1cc2nc(-c3ccc[nH]c3=O)[nH]c2cc1C", "solubility kinetic": 3.3}
{"smiles": "COc1ccc(CNC(=O)CSc2nccn(-c3ccc(F)c(F)c3)c2=O)cc1", "solubility kinetic": 12.4}
{"smiles": "CC1CCc2sc(C(=O)NCCCn3ccnc3)cc2C1", "note": "(stereo not given)", "solubility kinetic": 35}
{"smiles": "CCOc1ccccc1NC(=O)c1cc(=O)c2ccccc2o1", "solubility kinetic": "< 0.7"}
{"smiles": "Clc1ccc(/C=C/c2ncc[nH]2)c(Cl)c1", "solubility kinetic": 7.7}
{"smiles": "Cn1c(Cl)c(/C=N/OC(=O)C2CC2)c2ccccc21", "solubility kinetic": 2.7}
{"smiles": "CCN1CCCC1CNC(=O)c1cc2cc(F)ccc2[nH]1", "note": "(stereo not given)", "solubility kinetic": "> 43.4"}
{"smiles": "COc1ccc(N2CCN(CC(=O)c3ccc(Cl)cc3)CC2)cc1", "solubility kinetic": 45.7}
{"smiles": "CCC(Sc1nc(-c2ccccc2)c(-c2ccccc2)[nH]1)C(=O)O", "note": "(stereo not given)", "solubility kinetic": 44.8}
{"smiles": "C=CCOc1ccc(/C=C2\\SC(N)=NC2=O)cc1OC", "solubility kinetic": 5.7}
{"smiles": "CCc1nn(C)c(N)c1C.Cl", "solubility kinetic": "> 26.3"}
{"smiles": "O=S(=O)(c1ccc(=S)[nH]c1)N1CCN(Cc2ccccc2)CC1", "solubility kinetic": "> 52.4"}
{"smiles": "Nc1nc(-c2ccc3ccccc3c2)cs1", "solubility kinetic": 11.8}
{"smiles": "N#Cc1ccccc1COC(=O)c1ccc2c(c1)OCCO2", "solubility kinetic": 10.9}
{"smiles": "CSc1sccc1/C=C(/C#N)C(=O)c1ccco1", "solubility kinetic": 22.6}
{"smiles": "Cc1nc2ccccn2c1C(=O)CSc1cccc(Cl)c1", "solubility kinetic": 3.9}
{"smiles": "O=C(CCNC(=O)c1ccccc1Cl)Nc1nc2ccccc2[nH]1", "solubility kinetic": 4.9}
{"smiles": "O=S(=O)(/C=C/c1ccccc1)N1CCOCC1", "solubility kinetic": "> 38"}
{"smiles": "CC(C)CCC1(C)NC(=O)N(CC(=O)Nc2ccc3c(c2)OCCO3)C1=O", "note": "(stereo not given)", "solubility kinetic": 49.6}
{"smiles": "Nc1nc(NCc2ccco2)nc(N2CCOCC2)c1[N+](=O)[O-]", "solubility kinetic": "> 48"}
{"smiles": "O=C(CN1C(=O)NC2(CCCCC2)C1=O)Nc1ccc(Cl)cc1", "solubility kinetic": 11.3}
{"smiles": "COc1ccccc1C(=O)NCCCNC(=O)c1cccnc1", "solubility kinetic": 36.8}
{"smiles": "Cc1cc(CNC(=O)Cc2ccccc2)c2ccccc2n1", "solubility kinetic": "> 43.6"}
{"smiles": "NC(=O)CSc1nc(-c2ccccc2)nc2ccccc12", "solubility kinetic": 0.7}
{"smiles": "CN(C)c1ccc(NC(=S)c2ccc3ccccc3n2)cc1", "solubility kinetic": "< 0.2"}
{"smiles": "COc1ccc(C(=O)/C=C2/C(=O)Nc3ccccc32)cc1OC", "solubility kinetic": 1.2}
{"smiles": "CCN(CC(=O)NC1CCS(=O)(=O)C1)S(=O)(=O)c1ccc(Br)cc1", "note": "(stereo not given)", "solubility kinetic": "> 65.9"}
{"smiles": "CC(=O)Nc1ccccc1C(=O)C(=O)Nc1ccc(F)c(Cl)c1", "solubility kinetic": 2.4}
{"smiles": "COC(=O)[C@@H]1CC(O)CN1C(=O)C12CC3CC(CC(C3)C1)C2", "note": "(stereo not given in full)", "solubility kinetic": "> 46.1"}
{"smiles": "Cc1cc(F)ccc1NC(=O)c1cccnc1", "solubility kinetic": "> 34.5"}
{"smiles": "Cn1cccc1C(=O)NCC(c1ccco1)N1CCCCC1", "note": "(stereo not given)", "solubility kinetic": "> 45.2"}
{"smiles": "c1ccc(OCc2nc(-c3ccncc3)no2)cc1", "solubility kinetic": 36.5}
{"smiles": "COC(=O)c1ccc(N2CCS(=O)(=O)CC2)cc1", "solubility kinetic": "> 40.4"}
{"smiles": "CCCC(=O)Nc1cc2c3c(c1)CC(=O)N3CCC2", "solubility kinetic": "> 38.7"}
{"smiles": "COc1cccc(OC)c1C(=O)Nc1sc2c(c1C(N)=O)CCCC2", "solubility kinetic": 25}
{"smiles": "CCOC(=O)CN1C(=O)S/C(=C/c2ccco2)C1=O", "solubility kinetic": 21.2}
{"smiles": "COc1ccc(-c2cnc(N)n2C)cc1", "solubility kinetic": 26}
{"smiles": "O=C(NCCN1CCOCC1)c1c(O)nc2ccccn2c1=O", "solubility kinetic": "> 47.7"}
{"smiles": "COc1cccc(N2CC(C(=O)Nc3ccc(F)cc3)CC2=O)c1", "note": "(stereo not given)", "solubility kinetic": 20.3}
{"smiles": "Cc1ccccc1N1CCN(Cc2cc3c(cc2[N+](=O)[O-])OCO3)CC1", "solubility kinetic": 3.5}
{"smiles": "O=C(/C=C/c1ccco1)N1CCN(S(=O)(=O)c2ccccc2)CC1", "solubility kinetic": "> 52"}
{"smiles": "CC(C)N1CCN(Cc2ccc3c(c2)OCCO3)CC1CCO", "note": "(stereo not given)", "solubility kinetic": 45.5}
{"smiles": "Cc1c(Cl)cnc(NC(=O)COC(=O)C2CCCC2)c1Cl", "solubility kinetic": "> 49.7"}
{"smiles": "COc1ccc(CC(=O)O/N=C(\\N)c2ccccn2)cc1", "solubility kinetic": "> 42.8"}
{"smiles": "CC(=O)c1c(Nc2cccc(F)c2)oc(C)cc1=O", "solubility kinetic": 31.3}
{"smiles": "CN(C)c1cccc(NC(=O)NC2(C)CCS(=O)(=O)C2)c1", "note": "(stereo not given)", "solubility kinetic": "> 46.7"}
{"smiles": "COc1ccc(Br)cc1CN1CCCCCC1", "solubility kinetic": 37.4}
{"smiles": "S=c1nc(NCc2ccc3c(c2)OCO3)c2ccccc2[nH]1", "solubility kinetic": 0.6}
{"smiles": "CN(C)S(=O)(=O)N1CCN(CC(=O)Nc2ccc(F)cc2)CC1", "solubility kinetic": "> 51.7"}
{"smiles": "O=C(Nc1ncc(Cc2cccc([N+](=O)[O-])c2)s1)c1ccco1", "solubility kinetic": 0.7}
{"smiles": "CCN(CC)C(=S)SC1CCCCN(C(=O)c2ccc(F)cc2)C1=O", "note": "(stereo not given)", "solubility kinetic": 5.2}
{"smiles": "CCN(CC)C(=O)C1CCCN(c2ccc([N+](=O)[O-])cc2)C1", "note": "(stereo not given)", "solubility kinetic": "> 45.8"}
{"smiles": "COc1ccc2oc(=N)c(C(=O)NCc3ccccc3)cc2c1", "solubility kinetic": 3.1}
{"smiles": "Br.CC1=C(c2ccccc2)SC2=NCCN21", "solubility kinetic": "> 44.6"}
{"smiles": "CCc1ccc2c(CN3CCC(C(=O)OC)CC3)cc(=O)oc2c1", "solubility kinetic": "> 49.4"}
{"smiles": "Cn1c(=NC(=O)c2cccc([N+](=O)[O-])c2)sc2ccccc21", "solubility kinetic": "< 0.2"}
{"smiles": "Cc1ccc(NC(=O)CN2CCOCC2)c(Br)c1", "solubility kinetic": "> 47"}
{"smiles": "CCN(Cc1ccccc1)C(=O)c1cc2c(OC)c(OC)c(OC)cc2[nH]1", "solubility kinetic": 31.8}
{"smiles": "O=C(CN1c2cccc3cccc(c23)S1(=O)=O)NC1CCCCC1", "solubility kinetic": 5}
{"smiles": "O=C1C(=O)N(C/C=C/c2ccccc2)c2ccccc21", "solubility kinetic": 2.3}
{"smiles": "Cc1ccc([N+](=O)[O-])cc1N(CC(=O)NC1CCCC1)S(C)(=O)=O", "solubility kinetic": "> 53.3"}
{"smiles": "Nc1cc(Nc2ccccc2)c2nonc2c1[N+](=O)[O-]", "solubility kinetic": 0.5}
{"smiles": "O=C(NCCCNC(=O)c1cnccn1)c1cccc(F)c1", "solubility kinetic": 40.2}
